Assays:
Type in all cases: cell-based
[1] = system: Wnt activity (Sp5-Luc reporter, TCF/LEF binding sites) in SW480 colon carcinoma cells; experiment: Screening assay for Wnt activity: Sp5-Luc reporter gene assay in stably transduced SW480 colon carcinoma cells; settings: Homo sapiens, overnight incubation, 10-point curve from 10 μM
Excerpt: The screening assay for Wnt activity is described as follows. Reporter cell lines can be generated by stably transducing cancer cell lines (e.g., colon cancer) or primary cells (e.g., IEC-6 intestinal cells) with a lentiviral construct that includes a Wnt-responsive promoter driving expression of the firefly luciferase gene.
SW480 colon carcinoma cells were transduced with a lentiviral vector expressing luciferase with a human Sp5 promoter consisting of a sequence of eight TCF/LEF binding sites. SW480 cells stably expressing the Sp5-Luc reporter gene and a hygromycin resistance gene were selected by treatment with 150 μg/mL of hygromycin for 7 days. These stably transduced SW480 cells were expanded in cell culture and used for all further screening activities. Each compound was dissolved in DMSO as a 10 mM stock and used to prepare compound source plates. Serial dilution (1:3, 10-point dose-response curves starting from 10 μM) and compound transfer was performed using the ECHO 550 (Labcyte, Sunnyvale, Calif.) into 384-well white solid bottom assay plates (Greiner Bio-One) with appropriate DMSO backfill for a final DMSO concentration of 0.1%. For Sp5-Luc reporter gene assays, the cells were plated at 4,000 cells/well in 384-well plates with medium containing 1% fetal bovine serum and incubated overnight at 37° C. and 5% CO2. Following incubation, 20 μl of BrightGlo luminescence reagent (Promega) was added to each well of the 384-well assay plates. The plates were placed on an orbital shaker for 2 min and then luminescence was quantified using the Envision (Perkin Elmer) plate reader. Readings were normalized to DMSO only treated cells, and normalized activities were utilized for EC50 calculations using the dose-response log (inhibitor) vs. response variable slope (four parameters) nonlinear regression feature available in GraphPad Prism 5.0 (or Dotmatics). For EC50 of >10 μM, the percent inhibition at 10 μM is provided.

SW480 colon cancer cells = experiment: Cell viability assay (CellTiter-Blue) in SW480 colon cancer cells; settings: Homo sapiens, 96 h, four days, CellTiter-Blue
Description: Representative compounds were screened using the following assay procedure to assess the effect on cell viability as described below.
Each compound was dissolved in DMSO as a 10 mM stock and used to prepare compound source plates. Serial dilution (1:3, 8-point dose-response curves from 10 μM to 0.0045 μM) and compound transfer was performed using the ECHO 550 (Labcyte, Sunnyvale, Calif.) into 96-well clear bottom, black-walled plates (Corning-Costar).
Approximately 2×10^3 SW480 colon cancer cells were seeded into each well and allowed to incubate in the presence or absence of compound for four days at 37° C./5% CO2. Eight replicates of DMSO-treated cells served as controls and cells treated with compound were performed in duplicate.
After incubation, 20 μL of CellTiter-Blue (Promega) was added to each well allowed to incubate for approximately 3 hours. This reagent was a buffered solution which contains resazurin, metabolically active cells were able to reduce rezarurin (blue) into resorufin (pink) which was highly fluorescent. This measured fluorescence was used as a readout for cell viability.
After incubation, the plates were read at Ex 560 nm Em 590 nm (Cytation 3, BioTek). Dose-response curves were generated and EC50 concentration values were calculated using non-linear regression curve fit in the GraphPad Prism (San Diego, Calif.) or Dotmatics' Studies Software (Bishops Stortford, UK). For EC50 of >10 μM, the percent inhibition at 10 μM is provided.

IL-6 = experiment: Inhibition of IL-6 in LPS-stimulated THP-1 human monocyte cells (HTRF); settings: IL-6 inhibition, LPS-stimulated THP-1 cells, HTRF
Description: Human monocyte cell line (THP-1 cells; Catalog # TIB-202, ATCC, Manassas, Va.) were cultured in Roswell Park Memorial Institute (RPMI) 1640 Medium (Catalog #21870-100, Buffalo, N.Y.) with 1% L-glutamine, 1% HEPES, 1% Sodium Pyruvate, 2% Sodium Bicarbonate supplemented with 100 units/mL penicillin, 50 μg/mL streptomycin, 2-mercaptoethanol (0.05 mM) [basal medium] and 10% fetal bovine serum (Catalog #16140089, Life Technologies, Carlsbad, Calif.) at 37° C. and 5% CO2.
THP-1 cells were cultured in basal media with 1% FBS for 24 hours before the start of the assay. Each compound was dissolved in DMSO as a 10 mM stock and used to prepare compound source plates. Serial dilution (1:3, 10-point dose-response curves starting from 10 μM) and compound transfer was performed using the ECHO 550 (Labcyte, Sunnyvale, Calif.) into 384-well white low volume assay plates (Greiner Bio-One) with appropriate DMSO backfill for a final DMSO concentration of 0.1%. THP-1 cells were plated at 5000 cells/well in the 384-well plates and incubated at 37° C. for 2 h. 500 ng/mL of LPS was added after 2 hours and cells were incubated for another 22 hours at 37° C. Plates were spun in a centrifuge for 1 minute at […] and a mixture of anti-IL6 XL665, and anti-IL6 Cryptate diluted in reconstitution buffer (Cisbio Inc.) was added to each well. Following incubation for 3 hrs at room temperature, Homogeneous Time-Resolved Fluorescence (HTRF) was measured using the Envision (Perkin Elmer) at 665 nm and […]. The ratio of fluorescence at 665 nm to 620 nm was used as a readout for IL6 quantification. All samples were processed in duplicate. Readings were normalized to DMSO treated cells and normalized activities were utilized for EC50 calculations using the dose-response log (inhibitor) vs. response variable slope (four parameters) nonlinear regression feature available in GraphPad Prism 5.0 (or Dotmatics). For EC50 of >10 μM, the percent inhibition at 10 μM is provided.

[2] = system: Primary human fibroblasts derived from IPF patients (LL29 cells) treated with TGF-β1; experiment: Inhibition of the fibrotic process: αSMA staining in TGF-β1-treated primary human fibroblasts from IPF patients (LL29 cells); settings: Fibroblast, 96 h, % αSMA-positive LL29 cells, TGF-β1 20 ng/mL, 4 days
Excerpt: Representative compounds were screened using primary human fibroblasts (derived from IPF patients) treated with TGF-β1 to determine their ability to inhibit the fibrotic process.
Primary human fibroblasts derived from IPF patients (LL29 cells) [^1Xiaoqiu Liu, et. al., “Fibrotic Lung Fibroblasts Show Blunted Inhibition by cAMP Due to Deficient cAMP Response Element-Binding Protein Phosphorylation”, Journal of Pharmacology and Experimental Therapeutics (2005), 315(2), 678-687; ^2Watts, K. L., et. al., “RhoA signaling modulates cyclin D1 expression in human lung fibroblasts; implications for idiopathic pulmonary fibrosis”, Respiratory Research (2006), 7(1), 88] were obtained from American Type Culture Collection (ATCC) and expanded in F12 medium supplemented with 15% Fetal Bovine Serum and Penicillin/Streptomycin.
Each compound was dissolved in DMSO as a 10 mM stock and used to prepare compound source plates. Serial dilution (1:2, 11-point dose-response curves from 10 μM to […]) and compound transfer was performed using the ECHO 550 (Labcyte, Sunnyvale, Calif.) into 384-well clear bottom assay plates (Greiner Bio-One) with appropriate DMSO backfill for a final DMSO concentration of 0.1%. LL29 cells are plated at 1,500 cells/well in 80 μL/well F12 medium supplemented with 1% Fetal Bovine Serum. One hour after addition of the cells, TGF-β1 (Peprotech; 20 ng/mL) was added to the plates to induce fibrosis (ref 1 and 2 above). Wells treated with TGF-β1 and containing DMSO were used as controls. Cells were incubated at 37° C. and 5% CO2 for 4 days. Following incubation for 4 days, SYTOX green nucleic acid stain (Life Technologies [Thermo Fisher Scientific]) was added to the wells at a final concentration of 1 μM and incubated at room temperature for 30 min. Cells were then fixed using 4% formaldehyde (Electron Microscopy Sciences), washed 3 times with PBS followed by blocking and permeabilization using 3% Bovine Serum Albumin (BSA; Sigma) and 0.3% Triton X-100 (Sigma) in PBS. Cells were then stained with antibody specific to α-smooth muscle actin (αSMA; Abcam) (ref 1 and 2 above) in 3% Bovine Serum Albumin (BSA; Sigma) and 0.3% Triton X-100 (Sigma) in PBS, and incubated overnight at 4° C. Cells were then washed 3 times with PBS, followed by incubation with Alexa Flor-647 conjugated secondary antibody (Life Technologies [Thermo Fisher Scientific]) and DAPI at room temperature for 1 hour. Cells were then washed 3 times with PBS and plates were sealed for imaging. αSMA staining was imaged by excitation at 630 nm and emission at 665 nm and quantified using the Compartmental Analysis program on the CellInsight CX5 (Thermo Scientific). Dead or apoptotic cells were excluded from analysis based on positive SYTOX green staining. % of total cells positive for αSMA were counted in each well and normalized to the average of 11 wells treated with TGF-β1 on the same plate using Dotmatics' Studies Software. The normalized averages (fold change over untreated) of 3 replicate wells for each compound concentration were used to create dose-responses curves and EC50 values were calculated using non-linear regression curve fit in the Dotmatics' Studies Software. For EC50 of >10 μM, the percent inhibition at 10 μM is provided.

SMILES | EC50 [1] | EC50 (SW480 colon cancer cells) | EC50 (IL-6) | EC50 [2]
c1cc(-c2ccoc2)c2cc(-c3n[nH]c4ccc(-c5cnccn5)cc34)[nH]c2c1 [Compound 724, 3-(4-(Furan-3-yl)-1H-indol-2-yl)-5-(pyrazin-2-yl)-1H-indazole] | 791 nM | 3510 nM | 31 nM | 96 nM
CN(C)CCNc1cc(F)cc(-c2cccc3[nH]c(-c4n[nH]c5ccc(-c6cncc(NC(=O)C7CCCCC7)c6)cc45)cc23)c1 [Compound 471, N-(5-(3-(4-(3-((2-(Dimethylamino)ethyl)amino)-5-fluorophenyl)-1H-indol-2-yl)-1H-indazol-5-yl)pyridin-3-yl)cyclohexanecarboxamide] | 689 nM | 1380 nM | 731 nM | 1420 nM
c1cncc(-c2cccc3[nH]c(-c4n[nH]c5ccc(-c6cn[nH]c6)cc45)cc23)c1 [Compound 583, 5-(1H-Pyrazol-4-yl)-3-(4-(pyridin-3-yl)-1H-indol-2-yl)-1H-indazole] | 49 nM | 128 nM | 78 nM | 501 nM
Nc1cncc(-c2ccc3[nH]nc(-c4cc5c(-c6ccsc6)cccc5[nH]4)c3c2)c1 [Compound 283, 5-(3-(4-(Thiophen-3-yl)-1H-indol-2-yl)-1H-indazol-5-yl)pyridin-3-amine] | 40 nM | 111 nM | 180 nM | 809 nM
Cc1ccncc1-c1ccc2[nH]nc(-c3cc4c(N5CCCCC5)cccc4[nH]3)c2c1 [Compound 173, 5-(4-Methylpyridin-3-yl)-3-(4-(piperidin-1-yl)-1H-indol-2-yl)-1H-indazole] | 865 nM | 1980 nM | 4310 nM | 1780 nM

Further lines, with some results ahead:

EC50 [1] | EC50 (SW480 colon cancer cells) | EC50 (IL-6) | SMILES | EC50 [2]
495 nM | 4090 nM | 1220 nM | Fc1cccc(-c2cccc3[nH]c(-c4n[nH]c5ccc(-c6cncc(CN7CCC(F)(F)C7)c6)cc45)cc23)c1 [Compound 26, 5-(5-((3,3-diFluoropyrrolidin-1-yl)methyl)pyridin-3-yl)-3-(4-(3-fluorophenyl)-1H-indol-2-yl)-1H-indazole] | 815 nM
2880 nM | 4200 nM | 2380 nM | Fc1ccccc1-c1cccc2[nH]c(-c3n[nH]c4ccc(-c5ccccn5)cc34)cc12 [Compound 84, 3-(4-(2-Fluorophenyl)-1H-indol-2-yl)-5-(pyridin-2-yl)-1H-indazole] | 6740 nM
1230 nM | 1100 nM | 732 nM | O=C(Nc1cncc(-c2ccc3[nH]nc(-c4cc5c(-c6cccs6)cccc5[nH]4)c3c2)c1)C1CCCC1 [Compound 358, N-(5-(3-(4-(Thiophen-2-yl)-1H-indol-2-yl)-1H-indazol-5-yl)pyridin-3-yl) cyclopentanecarboxamide] | 21 nM
475 nM | 3270 nM | 3140 nM | CS(=O)(=O)NCc1cc(F)cc(-c2cccc3[nH]c(-c4n[nH]c5ccc(-c6cncc(CN7CCC(F)(F)C7)c6)cc45)cc23)c1 [Compound 502, N-(3-(2-(5-(5-((3,3-Difluoropyrrolidin-1-yl)methyl)pyridin-3-yl)-1H-indazol-3-yl)-1H-indol-4-yl)-5-fluorobenzyl)methane sulfonamide] | 811 nM
525 nM | 1000 nM | 529 nM | CCNCc1cncc(-c2ccc3[nH]nc(-c4cc5c(-c6ccccn6)cccc5[nH]4)c3c2)c1 [Compound 146, N-((5-(3-(4-(Pyridin-2-yl)-1H-indol-2-yl)-1H-indazol-5-yl)pyridin-3-yl)methyl)ethanamine] | 1410 nM
1160 nM | 2170 nM | 3110 nM | Fc1ccccc1-c1cccc2[nH]c(-c3n[nH]c4ccc(-c5cncc(CN6CCCCC6)c5)cc34)cc12 [Compound 71, 3-(4-(2-Fluorophenyl)-1H-indol-2-yl)-5-(5-(piperidin-1-ylmethyl)pyridin-3-yl)-1H-indazole] | 2550 nM
